Experiments:
[1] = system: CfEcRDEF:MmRXRDEF; experiment: CfEcR-based yeast two-hybrid assay, LacZ reporter pSH118; format: cell-based, Choristoneura fumiferana; Mus musculus; conditions: yeast strain comprising CfEcRDEF:MmRXRDEF; 0–100 μM ligand for four hours; FIGS. 18 and 19
From the text: This construct results in a LexA:CfEcRDEF fusion that is expressed under the GAL1 promoter.
The D, E, and F domains from mouse (Mus musculus) RXR α (“MmRXRDEF”; SEQ ID NO: 22) were fused to a B42 transactivation domain (“B42AD”; SEQ ID NO: 53) and placed under the control of a GAL1 promoter (SEQ ID NO: 73) in pB42AD (CLONTECH). This construct results in a B42AD:MmRXR-DEF fusion that is expressed under the GAL 1 promoter.
A reporter plasmid comprising a β-galactosidase gene (LacZ; SEQ ID NO: 74) under the control of an 8XLexA operon response element (“8XlexAop”; SEQ ID NO: 75) operably linked to a minimal TATAA region from the GAL1 promoter (p8op-lacZ from CLONTECH) was used to monitor inducible gene expression.
Saccharomyces cerevisiae yeast cells (EGY48; CLONTECH) were used in these experiments. Cells were maintained in liquid culture media with the appropriate drop out amino acids. Standard methods for culture and maintenance of the cells were followed. […]
DNA constructs pSH118, CfEcRDEF, and MmRXRA/BCDEF, MmRXRDEF, or […] were transfected into yeast cells. […] A colony from each group of transformants was grown in the liquid culture in the presence of 0, 0.04, 0.2, 1, 5 and 25 μM GS™-E. The reporter activity was measured as described above 4 hours after adding ligand. Total RLUs were calculated and the numbers on the bars of FIG. 16 show maximum fold induction observed for that group (see FIGS. 16 and 17).
The best performing transformed yeast strain from the analysis above comprising CfEcRDEF:MmRXRDEF was used to determine the induction activity of three steroid ligands (20E, PonA, MurA) and four non-steroid ligands (GS™-E, RH2485, RH5992, RH5849) in this yeast-based format. The yeast cells were cultured in the presence of 0, 0.l, 1, 10, 50 and 100 μM ligands for four hours and the reporter activity was measured as described above. Total RLUs were calculated and the numbers on the top of the bars of FIG. 18 show the maximum fold induction for that group (see FIGS. 18 and 19).

[2] = system: GAL4EcR + VP16RXR; experiment: Transactivation of reporter gene through switch 1.1 in 3T3 cells; conditions: GAL4CfEcRDEF/VP16MmRXRDEF (switch 1.1), 1.0 μM ligand, 48 hr
From the text: (§1) In various cellular backgrounds, including mammalian cells, insect ecdysone receptor (EcR) heterodimerizes with retinoid X receptor (RXR) and, upon binding of ligand, transactivates genes under the control of ecdysone response elements. […] The prepared receptor constructs comprise a ligand binding domain of EcR and of RXR or of USP; a DNA binding domain of GAL4 or of EcR; and an activation domain of VP16. The reporter constructs include a reporter gene, luciferase or LacZ, operably linked to a synthetic promoter construct that comprises either GAL4 or EcR/USP binding sites (response elements). Various combinations of these receptor and reporter constructs were cotransfected into CHO, NIH3T3, CV1 and 293 cells.
(§2) The same procedures described for CHO cells were followed for 3T3 cells as well with two modifications. The cells were plated when they reached 50% confluency. 125,000 or 50,000 or 25,000 cells were plated per well of 6- or 12- or 24-well plates respectively.

[3] = system: GAL4RXR + VP16CfEcR; experiment: Transactivation of reporter gene through switch 1.3 in 3T3 cells; conditions: GAL4MmRXRDEF/VP16CfEcRCDEF (switch 1.3), 1.0 μM ligand
From the text: as §1
as §2, with “respectively. […] The ligand treatments were performed as described in the CHO cell section above.” for “respectively.”

[4] = system: EcR/RXR receptor combinations; experiment: Truncated CfEcR and MmRXR receptor combinations, luciferase reporter in NIH3T3 cells; format: cell-based, Choristoneura fumiferana; Mus musculus; conditions: 0, 1, 5 or 25 uM ligand for 48 hr, FIGS. 11–14
Experimental: Briefly, polynucleotides encoding EcR or RXR receptors were truncated at the junctions of A/B, C, D, E and F domains and fused to either a GAL4 DNA binding domain encoding polynucleotide (SEQ ID NO: 43) for CfEcR, or a VP16 activation domain encoding polynucleotide (SEQ ID NO: 49) for MmRXR as described in Example 1. The resulting receptor truncation/fusion polypeptides were assayed in NIH3T3 cells. Plasmid pFRLUC (Stratagene) encoding a luciferase polypeptide was used as a reporter gene construct and pTKRL (Promega) encoding a Renilla luciferase polypeptide under the control of the constitutive TK promoter was used to normalize the transfections as described above. The analysis was performed in triplicates and mean luciferase counts were determined as described above. […]

[5] = system: CfEcR; experiment: Transactivation through CfEcR- versus DmEcR-based switches in mammalian cell lines (Tables 1–4); design: species or system Choristoneura fumiferana
Experimental: Cells were harvested 24–48 hr after adding ligands. […] Twenty μl of lysate was assayed.

Structure (SMILES) | Induction of gene expression (relative performance of ligands) [1] | Mean Fold Induction at 1.0 μM Concentration [2] [fold] | Mean Fold Induction at 1.0 μM Concentration [3] [fold] | Sensitivity of the EcR/RXR switch to the ligand [4] | Potency as activator of CfEcR compared to DmEcR [5]
CC(C)(C)N(NC(=O)c1ccccc1)C(=O)c1ccccc1 [RH5849, N-tert-butyl-N,N′-dibenzoylhydrazine] | did not show a significant response |  |  |  | 
CC(C)CC[C@@H](O)[C@](C)(O)[C@H]1CC[C@@]2(O)C3=CC(=O)[C@@H]4C[C@@H](O)[C@@H](O)C[C@]4(C)[C@H]3CC[C@]12C [Ponasterone A, reference compound] |  | 1.0 | 1.0 | insensitive | 
CC(C)CC[C@@H](O)[C@](C)(O)[C@H]1CC[C@@]2(O)C3=CC(=O)[C@]4(O)C[C@@H](O)[C@@H](O)C[C@]4(C)[C@H]3[C@H](O)C[C@]12C [Muristerone A, reference compound] |  | 1.0 | 1.0 |  | 
Cc1cc(C)cc(C(=O)N(NC(=O)c2ccc3c(c2C)OCCO3)C(C)(C)C)c1 [N-(3,4-(1,2-ethylenedioxy)-2-methylbenzoyl)-N′-(3,5-dimethylbenzoyl)-N′-tert-butylhydrazine] |  |  | 54 |  | more potent activators of CfEcR as compared to Drosophila melanogaster EcR (DmEcR)

From patent US7091038B2, “Ecdysone receptor-based inducible gene expression system” (RheoGene, Inc., priority 2000, dated 2006)
